Laboratory results reported in patent US20250134869A1, “Pyrrolo[2,3-d]pyrimidinyl, Pyrrolo[2,3-b]pyrazinyl and Pyrrolo[2,3-d]pyridinyl Acryla-mides” (Pfizer Inc, priority 2021, published 2025).
pIC50: −log10 of the molar value. Like-named read-outs stand apart in the source and are kept apart here.

Key:
[1] = test system: IL-15 induced P-STAT5 in human PBMC; assay: PBMC IL-15 induced P-STAT5; type: cell-based; conditions: human PBMC, IL-15 stimulated, read-out: PBMC IL15-pSTAT5 IC50
Protocol: PBMC IL-15 Induced P-STAT5
Frozen human PBMC (200-250 million cells/vial) was thawed at 37° C. The cells were transferred to 10 mL warm medium in a 50-mL conical tube, and centrifuged at 1,200 RPM at room temperature for 5 min. The supernatant was aspirated. […] After adding 47 ml D-PBS (37° C.) to PBMC/FBS suspension, centrifuging at 1,200 RPM at room temperature for 5 min, and aspirating the supernatant, the cells were resuspended in 20 mL warm RPMI medium. Ninety μL of cell suspension were pipetted per well in a 96-well, deep-well, V-bottom plate, and the plate was incubated at 37° C. for 30 min. […] After adding 0.8 mL staining buffer per well, the plates were centrifuged at 1,200 RPM (Beckman GS-6R or Sorvall Legend) at room temperature for 5 min, and again the supernatant was aspirated using a 8-channel or 12-channel manifold. The plate was vortexed, and 0.35 mL 90% methanol/10% H2O (−20° C.) was added per well, and the plate incubated on ice for 20 min. After again adding 0.8 mL staining buffer per well, the plates were centrifuged at 1,200 RPM (Beckman GS-6R or Sorvall Legend) at room temperature for 5 min, and again the supernatant was aspirated using a 8-channel or 12-channel manifold, and then 0.8 mL Staining buffer was added per well. After once again adding 0.8 mL staining buffer per well, the plates were centrifuged at 1,200 RPM (Beckman GS-6R or Sorvall Legend) at room temperature for 5 min, and again the supernatant was aspirated using a 8-channel or 12-channel manifold. […] Samples of 250 μL/well were transferred to a 96-well U-bottom plate, and the FACS analysis was performed gating on total lymphocytes. Samples were analyzed using a BD Calibur™ or BD FACSCanto™ flow cytometer equipped with the BD High Throughput Sampler.

JAK3 enzyme = JAK3 enzyme (Homo sapiens (Human), UniProt P52333); assay: JAK Caliper Enzyme Assay at 4 μM or 1 mM ATP; type: biochemical
[2] = read-out: JAK3 (4 μM ATP) IC50, 4 μM ATP
[3] = read-out: JAK3 (1 mM ATP) IC50, 1 mM ATP

JAK3 enzyme, sequence (P52333 whole entry, species assumed): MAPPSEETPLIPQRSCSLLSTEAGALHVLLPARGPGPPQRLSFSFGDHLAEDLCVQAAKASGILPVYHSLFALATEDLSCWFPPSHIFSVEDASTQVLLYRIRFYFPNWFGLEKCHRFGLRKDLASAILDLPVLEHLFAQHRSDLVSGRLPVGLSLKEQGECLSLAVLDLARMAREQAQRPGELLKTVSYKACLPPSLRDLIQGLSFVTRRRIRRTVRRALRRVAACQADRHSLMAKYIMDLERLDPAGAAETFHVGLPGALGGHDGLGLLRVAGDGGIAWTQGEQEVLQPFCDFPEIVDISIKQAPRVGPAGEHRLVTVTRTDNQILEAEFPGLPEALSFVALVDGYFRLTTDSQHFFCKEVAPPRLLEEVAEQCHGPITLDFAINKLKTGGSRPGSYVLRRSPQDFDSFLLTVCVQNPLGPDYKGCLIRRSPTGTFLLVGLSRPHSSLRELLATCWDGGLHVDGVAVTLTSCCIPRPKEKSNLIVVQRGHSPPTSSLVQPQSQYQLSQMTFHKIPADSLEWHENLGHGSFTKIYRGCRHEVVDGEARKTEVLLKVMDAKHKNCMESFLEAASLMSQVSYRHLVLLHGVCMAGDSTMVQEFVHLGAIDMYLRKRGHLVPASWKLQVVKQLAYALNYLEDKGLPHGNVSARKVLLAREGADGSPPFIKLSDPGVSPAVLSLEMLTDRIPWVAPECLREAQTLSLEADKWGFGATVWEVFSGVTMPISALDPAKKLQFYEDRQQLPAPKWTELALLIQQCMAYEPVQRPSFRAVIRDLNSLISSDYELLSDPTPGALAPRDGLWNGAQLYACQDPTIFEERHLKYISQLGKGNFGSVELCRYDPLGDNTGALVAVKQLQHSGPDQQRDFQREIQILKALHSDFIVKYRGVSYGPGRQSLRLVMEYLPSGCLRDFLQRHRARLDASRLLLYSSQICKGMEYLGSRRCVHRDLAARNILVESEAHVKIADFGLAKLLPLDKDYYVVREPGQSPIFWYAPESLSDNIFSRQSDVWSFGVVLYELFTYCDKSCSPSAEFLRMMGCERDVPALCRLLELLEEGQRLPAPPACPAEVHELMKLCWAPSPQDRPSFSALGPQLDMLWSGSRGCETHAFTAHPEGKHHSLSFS

SMILES	pIC50 [1]	pIC50 (JAK3 enzyme; [2])	pIC50 (JAK3 enzyme; [3])	pIC50 ([1]; Homo sapiens, PBMC)
C=CC(=O)c1c[nH]c2ncnc(N[C@H]3CN(C(=O)C=C)CC[C@H]3F)c12 [Example 120, 1-(4-{[(3S,4R)-1-Acryloyl-4-fluoropiperidin-3-yl]amino}-7H-pyrrolo[2,3-d]pyrimidin-5-yl)prop-2-en-1-one]	< 5.00	6.16	< 8.00	
CN(C)C/C=C/C(=O)N1CC[C@@H]2CCN(c3ncnc4[nH]ccc34)[C@@H]2C1 [Example 82, (2E)-4-(dimethylamino)-1-[(3aS,7aS)-1-(7H-pyrrolo[2,3-d]pyrimidin-4-yl)octahydro-6H-pyrrolo[2,3-c]pyrdin-6-yl]but-2-en-1-one]	< 5.14	7.24	5.28	
C=CC(=O)N1CCC(Oc2cnc3[nH]cc(-c4ccc(F)nc4)c3n2)CC1 [Example 226, 1-(4-{[7-(6-fluoropyridin-3-yl)-5H-pyrrolo[2,3-b]pyrazin-2-yl]oxy}piperidin-1-yl)prop-2-en-1-one]	6.16	9.00	7.04	
C=CC(=O)N1CCC[C@@](C)(Nc2ncnc3[nH]ccc23)C1 [Example 72, (R)-1-(3-((7H-pyrrolo[2,3-d]pyrimidin-4-yl)amino)-3-methylpiperidin-1-yl)prop-2-en-1-one]				< 5.00
C=CC(=O)N1CC[C@@H]2OCCN(c3ncnc4[nH]ccc34)[C@H]2C1 [Example 119, 1-[(4aS,8aS)-4-(7H-Pyrrolo[2,3-d]pyrimidin-4-yl)hexahydro-2H-pyrido[4,3-b][1,4]oxazin-6 (5H)-yl]prop-2-en-1-one]	< 5.00			
C=C(CN(C)C)C(=O)N1CCC[C@@H](Nc2ncnc3[nH]ccc23)C1 [Example 92, 2-[(dimethylamino)methyl]-1-[(3R)-3-(7H-pyrrolo[2,3-d]pyrimidin-4-ylamino)piperidin-1-yl]prop-2-en-1-one]	< 5.00			
C=CC(=O)N1CC[C@@H]2CCN(c3ncnc4[nH]ccc34)[C@H]2C1 [Example 49, 1-[(3aS,7aR)-1-(7H-Pyrrolo[2,3-d]pyrimidin-4-yl)octahydro-6H-pyrrolo[2,3-c]pyridin-6-yl]prop-2-en-1-one]	6.45			
C=CC(=O)N1CCCC(C)(Nc2ncnc3[nH]ccc23)C1 (stereo not drawn) [Example 71, 1-(3-((7H-Pyrrolo[2,3-d]pyrimidin-4-yl)amino)-3-methylpiperidin-1-yl)prop-2-en-1-one]				< 5.00
C=C(CO)C(=O)N1CCC[C@@H](Nc2ncnc3[nH]ccc23)C1 [Example 93, 2-(hydroxymethyl)-1-[(3R)-3-(7H-pyrrolo[2,3-d]pyrimidin-4-ylamino)piperidin-1-yl]prop-2-en-1-one]	< 5.00	6.15	< 5.00	
C=CC(=O)N1C[C@H](OC)C[C@@H](N(C)c2ncnc3[nH]ccc23)C1 [Example 78, 1-{(3R,5R)-3-Methoxy-5-[methyl(7H-pyrrolo[2,3-d]pyrimidin-4-yl)amino]piperidin-1-yl}prop-2-en-1-one]	< 5.00	6.41	< 5.00	
C=CC(=O)N1CC[C@H](Nc2cnc3[nH]ccc3n2)C1 [Example 336, (S)-1-(3-((5H-Pyrrolo[2,3-b]pyrazin-2-yl)amino)pyrrolidin-1-yl)prop-2-en-1-one]	< 5.00	7.51	5.47	
O=C(/C=C/C(F)(F)F)N1CC[C@@H]2CCN(c3ncnc4[nH]ccc34)[C@@H]2C1 [Example 81, (2E)-4,4,4-trifluoro-1-[(3aS,7aS)-1-(7H-pyrrolo[2,3-d]pyrimidin-4-yl)octahydro-6H-pyrrolo[2,3-c]pyridin-6-yl]but-2-en-1-one]				< 5.40
C=CC(=O)N1CC(Nc2ncnc3[nH]ccc23)CCC1CO (stereo not drawn) [Example 52, 1-[2-(Hydroxymethyl)-5-(7H-pyrrolo[2,3-d]pyrimidin-4-ylamino)piperidin-1-yl]prop-2-en-1-one]	< 6.45			
C=CC(=O)N1CC[C@@H](Nc2cnc3[nH]ccc3n2)C1 [Example 335, (R)-1-(3-((5H-Pyrrolo[2,3-b]pyrazin-2-yl)amino)pyrrolidin-1-yl)prop-2-en-1-one]	< 5.00	6.21		
C=CC(=O)N1CCC[C@@H](Nc2ncnc3[nH]cc(-c4cnn(C)c4)c23)C1 [Example 28, 1-[(3R)-3-{[5-(1-methyl-1H-pyrazol-4-yl)-7H-pyrrolo[2,3-d]pyrimidin-4-yl]amino}piperidin-1-yl]prop-2-en-1-one]	< 5.00	7.32	6.45	
C=CC(=O)N1CC[C@@H](O)[C@@H](Nc2ncnc3[nH]ccc23)C1 (racemic) [Example 64, 1-[(3S,4R)-4-Hydroxy-3-(7H-pyrrolo[2,3-d]pyrimidin-4-ylamino)piperidin-1-yl]prop-2-en-1-one]	5.33	8.28	6.00	
C=CC(=O)N1CC[C@H](O)[C@@H](Nc2ncnc3[nH]ccc23)C1 (racemic) [Example 113, rac-1-[(3S,4S)-4-Hydroxy-3-(7H-pyrrolo[2,3-d]pyrimidin-4-ylamino)piperidin-1-yl]prop-2-en-1-one]	< 5.00			
C=CC(=O)N1CCC(Oc2cnc3[nH]cc(-c4cncc(C#N)c4)c3n2)CC1 [Example 225, 5-{2-[(1-acryloylpiperidin-4-yl)oxy]-5H-pyrrolo[2,3-b]pyrazin-7-yl}pyridine-3-carbonitrile]	5.54	8.85	6.92	
C=CC(=O)N1CC[C@H]2CCN(c3ncnc4[nH]ccc34)[C@H]2C1 [Example 76, 1-[(3aR,7aR)-1-(7H-Pyrrolo[2,3-d]pyrimidin-4-yl)octahydro-6H-pyrrolo[2,3-c]pyridin-6-yl]prop-2-en-1-one]	< 5.22			
C=CC(=O)N1CC[C@@H]2CCN(c3ncnc4[nH]cc(CCOC)c34)[C@@H]2C1 [Example 89, 1-{(3aS,7aS)-1-[5-(2-Methoxyethyl)-7H-pyrrolo[2,3-d]pyrimidin-4-yl]octahydro-6H-pyrrolo[2,3-c]pyridin-6-yl}prop-2-en-1-one]	< 5.21	7.45	5.40	
C=CC(=O)N1CCC[C@@H](Nc2ccnc3[nH]cc(C)c23)C1 [Example 47, 1-{(3R)-3-[(3-methyl-1H-pyrrolo[2,3-b]pyridin-4-yl)amino]piperidin-1-yl}prop-2-en-1-one]	5.97	8.40	6.22	
C=CC(=O)N1CC[C@@H]2OCCN(c3ncnc4[nH]ccc34)[C@@H]2C1 [Example 90, 1-[(4aR,8aS)-4-(7H-Pyrrolo[2,3-d]pyrimidin-4-yl)hexahydro-2H-pyrido[4,3-b][1,4]oxazin-6 (5H)-yl]prop-2-en-1-one]				< 5.00
C=CC(=O)N(C)C1CN(c2cnc3[nH]cc(C(=O)NC(C)C)c3n2)C1 [Example 187, 2-{3-[acryloyl(methyl)amino]azetidin-1-yl}-N-(propan-2-yl)-5H-pyrrolo[2,3-b]pyrazine-7-carboxamide]		9.22	7.57	
COC(=O)C/C=C/C(=O)N1CCC[C@@H](Nc2ncnc3[nH]ccc23)C1 [Example 97, methyl (3E)-5-oxo-5-[(3R)-3-(7H-pyrrolo[2,3-d]pyrimidin-4-ylamino)piperidin-1-yl]pent-3-enoate]		6.04	< 5.00	
C=CC(=O)N(C)C1CCN(c2cnc3[nH]cc(C(=O)NC(C)C)c3n2)CC1 [Example 169, 2-{4-[acryloyl(methyl)amino]piperidin-1-yl}-N-(propan-2-yl)-5H-pyrrolo[2,3-b]pyrazine-7-carboxamide]		7.37	5.32	
C=C(C)C(=O)N1CCC[C@@H](Nc2ncnc3[nH]cc(Cc4ccc(O)cc4)c23)C1 [Example 139, 1-[(3R)-3-{[5-(4-hydroxybenzyl)-7H-pyrrolo[2,3-d]pyrimidin-4-yl]amino}piperidin-1-yl]-2-methylprop-2-en-1-one]		7.08		
C=CC(=O)N1CC2(C1)CN(c1cnc3[nH]ccc3n1)C2 [Example 175, 1-[6-(5H-pyrrolo[2,3-b]pyrazin-2-yl)-2,6-diazaspiro[3.3]hept-2-yl]prop-2-en-1-one]		5.79		
C=CC(=O)N1CCN(c2cnc3[nH]cc(C(=O)NC(C)C)c3n2)[C@H](C)C1 [Example 307, 2-[(2R)-4-acryloyl-2-methylpiperazin-1-yl]-N-(propan-2-yl)-5H-pyrrolo[2,3-b]pyrazine-7-carboxamide]		8.96	6.89	
C=CC(=O)N1C[C@H](Nc2ncnc3[nH]cc(CCOC)c23)CC[C@@H]1C [Example 13, 1-((2S,5R)-5-((5-(2-Methoxyethyl)-7H-pyrrolo[2,3-d]pyrimidin-4-yl)amino)-2-methylpiperidin-1-yl)prop-2-en-1-one]		9.40	7.22	
